# From patent US20040044055A1, “N-alkoxlyalkyl-substituted benzimidazoles and the use thereof as an agent against parastic protozoans” (priority 2000, published 2004)
# Key:
# Type in all cases: in vivo
# Eimeria maxima = assay: Cage experiment on coccidiosis/chicks; conditions: chicks; for Efficacy against Eimeria maxima: 2nd figure of cell
# Method: (§1) 8- to 12- day-old male chicks (e.g. LSL Brinkschulte/Senden) which have been reared coccidia-free receive the compounds according to the invention (test substances) in the concentration indicated in ppm with the feed from 3 days before (day −3) infection (=a.i.) until 8 (9) days after infection (=p.i.). 3 animals are kept in each cage. One or more groups of this type are employed per dose. Infection is carried out by means of a stomach tube directly into the crop with approximately 100,000 sporulated oocysts of Eimeria acervulina and with approximately 30,000 oocysts each of E. maxima and 40,000 sporulated oocysts of E. tenella. These are highly virulent strains. The exact infection dose is adjusted so that, if possible, one of three experimentally infected untreated chicks dies due to the infection. For assessment of the efficacy, the following criteria are taken into account: weight increase from the start of the experiment to the end of the experiment, death rate due to infection, macroscopic assessment of the faeces with respect to diarrhoea and excretion of blood on days 5 and 7 p.i. (assessment 0 to 6), macroscopic assessment of the intestinal mucosa, in particular of the appendices (assessment 0 to 6) and the oocyst excretion as well as the proportion (in %) of the oocysts sporulating in the course of 24 hours. The number of oocysts in the faeces was determined with the aid of a McMaster counting chamber (see Engelbrecht and coworkers “Parasitologische Arbeitsmethoden in Medizin and Veterinärmedizin” [Parasitological Working Methods in Medicine and Veterinary Medicine], Akademie-Verlag, Berlin (1965)). The individual findings are related to the untreated non-infected control groups and a total score is calculated (cf. A. Haberkorn (1986), pp. 263 to 270 in Research in Avian Coccidiosis ed L. R. McDougald, L. P. Joyner, P. L. Long, Proceedings of the Georgia Coccidiosis Conference, Nov. 18-20, 1985, Athens/Ga. USA).
# (§2) In the column “ppm”, the concentration of the active compound employed in the feed is indicated in ppm.
# (§3) In the column “mortality”, the percentage of the dead animals is indicated under % and the number of dead animals/animals employed in the experiment is indicated under n.
# (§4) In the column “weight % of not inf. control”, the ratio of the weight of the treated animals to the weight of the non-infected control group is indicated.
# (§5) In the columns “dropping scores”, “lesion score” and “oocyst control”, individual details of the action are given.
# (§6) In the column “% efficacy”, the total score is assessed; 0% means no action, 100% means full action.
# Eimeria tenella = assay: Cage experiment on coccidiosis/chicks; conditions: chicks; for Efficacy against Eimeria tenella: 3rd figure of cell
# Method: as §1, §2, §3, §4, §5, §6
# Eimeria acervulina = assay: Cage experiment on coccidiosis/chicks; conditions: chicks; for Efficacy against Eimeria acervulina: 1st figure of cell
# Method: as §1, §2, §3, §4, §5, §6
# [1] = tested on: Eimeria acervulina, Eimeria maxima and Eimeria tenella; assay: Cage experiment on coccidiosis/chicks, mixed experimental infection; conditions: chicks; for dropping scores / lesion score: assessment 0 to 6; for mortality n: dead animals/animals employed; for % efficay tot.: total score
# Method: as §1, §2, §3, §4, §5, §6
smiles,measurement,setting,value
"CO[C@@H]1[C@@H](OC)[C@H](C)[C@@](O)(CC(=O)O)O[C@H]1[C@H](C)[C@H]1O[C@@]2(CC[C@@](C)([C@H]3CC[C@@](C)([C@@H]4O[C@@H]([C@H]5O[C@](C)(O)[C@H](C)C[C@@H]5C)C[C@@H]4O[C@@H]4C[C@H](OC)[C@@H](OC)[C@H](C)O4)O3)O2)C[C@H](O)[C@H]1C [MAD, maduramicin, reference compound]",oocyst in % of inf. control max.,Eimeria maxima; MAD 1 ppm in feed,>100%
same,oocyst in % of inf. control max.,Eimeria maxima; MAD 2 ppm in feed,>100%
same,oocyst in % of inf. control max.,Eimeria maxima; MAD 3 ppm in feed,>100%
same,oocyst in % of inf. control ten.,Eimeria tenella; MAD 1 ppm in feed,85%
same,oocyst in % of inf. control ten.,Eimeria tenella; MAD 2 ppm in feed,>100%
same,oocyst in % of inf. control ten.,Eimeria tenella; MAD 3 ppm in feed,75%
same,oocyst in % of inf. control ac.,Eimeria acervulina; MAD 1 ppm in feed,>100%
same,oocyst in % of inf. control ac.,Eimeria acervulina; MAD 2 ppm in feed,>100%
same,oocyst in % of inf. control ac.,Eimeria acervulina; MAD 3 ppm in feed,>100%
same,mortality %,[1]; MAD 1 ppm in feed,67%
same,oocyst in % of inf. control tot.,[1]; MAD 1 ppm in feed,>100%
same,weight % of not inf. control,[1]; MAD 1 ppm in feed,17%
same,dropping scores,[1]; MAD 1 ppm in feed,6
same,lesion score,[1]; MAD 1 ppm in feed,6
same,mortality n,[1]; MAD 1 ppm in feed,2/3
same,% efficay tot.,[1]; MAD 1 ppm in feed,0%
same,mortality %,[1]; MAD 2 ppm in feed,0%
same,oocyst in % of inf. control tot.,[1]; MAD 2 ppm in feed,>100%
same,weight % of not inf. control,[1]; MAD 2 ppm in feed,82%
same,dropping scores,[1]; MAD 2 ppm in feed,2
same,lesion score,[1]; MAD 2 ppm in feed,6
same,mortality n,[1]; MAD 2 ppm in feed,0/3
same,% efficay tot.,[1]; MAD 2 ppm in feed,29%
same,mortality %,[1]; MAD 3 ppm in feed,0%
same,oocyst in % of inf. control tot.,[1]; MAD 3 ppm in feed,>100%
same,weight % of not inf. control,[1]; MAD 3 ppm in feed,98%
same,dropping scores,[1]; MAD 3 ppm in feed,0
same,lesion score,[1]; MAD 3 ppm in feed,1
same,mortality n,[1]; MAD 3 ppm in feed,0/3
same,% efficay tot.,[1]; MAD 3 ppm in feed,44%
CCOCn1c(C(F)(F)F)nc2c(C(F)(F)F)cc(OC(F)(F)F)cc21 [Ex. 3],Efficacy against Eimeria maxima,Eimeria maxima; 1 ppm in feed,0
same,Efficacy against Eimeria maxima,Eimeria maxima; 2.5 ppm in feed,2
same,Efficacy against Eimeria maxima,Eimeria maxima; 5 ppm in feed,2
same,Efficacy against Eimeria maxima,Eimeria maxima; 7.5 ppm in feed,2
same,Efficacy against Eimeria maxima,Eimeria maxima; 10 ppm in feed,1
same,Efficacy against Eimeria tenella,Eimeria tenella; 1 ppm in feed,0
same,Efficacy against Eimeria tenella,Eimeria tenella; 2.5 ppm in feed,1
same,Efficacy against Eimeria tenella,Eimeria tenella; 5 ppm in feed,2
same,Efficacy against Eimeria tenella,Eimeria tenella; 7.5 ppm in feed,2
same,Efficacy against Eimeria tenella,Eimeria tenella; 10 ppm in feed,1
same,Efficacy against Eimeria acervulina,Eimeria acervulina; 1 ppm in feed,0
same,Efficacy against Eimeria acervulina,Eimeria acervulina; 2.5 ppm in feed,2
same,Efficacy against Eimeria acervulina,Eimeria acervulina; 5 ppm in feed,2
same,Efficacy against Eimeria acervulina,Eimeria acervulina; 7.5 ppm in feed,2
same,Efficacy against Eimeria acervulina,Eimeria acervulina; 10 ppm in feed,1
CC(C)COCn1c(C(F)(F)F)nc2cc(OC(F)(F)F)c(C(F)(F)F)cc21 [Ex. 2],Efficacy against Eimeria maxima,Eimeria maxima; 1 ppm in feed,1
same,Efficacy against Eimeria maxima,Eimeria maxima; 2.5 ppm in feed,1
same,Efficacy against Eimeria maxima,Eimeria maxima; 5 ppm in feed,1
same,Efficacy against Eimeria maxima,Eimeria maxima; 7.5 ppm in feed,1
same,Efficacy against Eimeria maxima,Eimeria maxima; 10 ppm in feed,2
same,Efficacy against Eimeria maxima,Eimeria maxima; 25 ppm in feed,2
same,Efficacy against Eimeria maxima,Eimeria maxima; 50 ppm in feed,2
same,oocyst in % of inf. control max.,Eimeria maxima; Ex. 2 2.5 ppm in feed,>100%
same,oocyst in % of inf. control max.,Eimeria maxima; Ex. 2 5 ppm in feed,0%
same,oocyst in % of inf. control max.,Eimeria maxima; Ex. 2 7.5 ppm in feed,0%
same,oocyst in % of inf. control max.,Eimeria maxima; Ex. 2 10 ppm in feed,>100%
same,Efficacy against Eimeria tenella,Eimeria tenella; 1 ppm in feed,1
same,Efficacy against Eimeria tenella,Eimeria tenella; 2.5 ppm in feed,1
same,Efficacy against Eimeria tenella,Eimeria tenella; 5 ppm in feed,0
same,Efficacy against Eimeria tenella,Eimeria tenella; 7.5 ppm in feed,1
same,Efficacy against Eimeria tenella,Eimeria tenella; 10 ppm in feed,1
same,Efficacy against Eimeria tenella,Eimeria tenella; 25 ppm in feed,2
same,Efficacy against Eimeria tenella,Eimeria tenella; 50 ppm in feed,2
same,oocyst in % of inf. control ten.,Eimeria tenella; Ex. 2 2.5 ppm in feed,>100%
same,oocyst in % of inf. control ten.,Eimeria tenella; Ex. 2 5 ppm in feed,98%
same,oocyst in % of inf. control ten.,Eimeria tenella; Ex. 2 7.5 ppm in feed,23%
same,oocyst in % of inf. control ten.,Eimeria tenella; Ex. 2 10 ppm in feed,65%
same,Efficacy against Eimeria acervulina,Eimeria acervulina; 1 ppm in feed,1
same,Efficacy against Eimeria acervulina,Eimeria acervulina; 2.5 ppm in feed,1
same,Efficacy against Eimeria acervulina,Eimeria acervulina; 5 ppm in feed,0
same,Efficacy against Eimeria acervulina,Eimeria acervulina; 7.5 ppm in feed,1
same,Efficacy against Eimeria acervulina,Eimeria acervulina; 10 ppm in feed,1
same,Efficacy against Eimeria acervulina,Eimeria acervulina; 25 ppm in feed,2
same,Efficacy against Eimeria acervulina,Eimeria acervulina; 50 ppm in feed,2
same,oocyst in % of inf. control ac.,Eimeria acervulina; Ex. 2 2.5 ppm in feed,>100%
same,oocyst in % of inf. control ac.,Eimeria acervulina; Ex. 2 5 ppm in feed,54%
same,oocyst in % of inf. control ac.,Eimeria acervulina; Ex. 2 7.5 ppm in feed,56%
same,oocyst in % of inf. control ac.,Eimeria acervulina; Ex. 2 10 ppm in feed,93%
same,mortality %,[1]; Ex. 2 2.5 ppm in feed,33%
same,oocyst in % of inf. control tot.,[1]; Ex. 2 2.5 ppm in feed,>100%
same,weight % of not inf. control,[1]; Ex. 2 2.5 ppm in feed,33%
same,dropping scores,[1]; Ex. 2 2.5 ppm in feed,6
same,lesion score,[1]; Ex. 2 2.5 ppm in feed,6
same,mortality n,[1]; Ex. 2 2.5 ppm in feed,1/3
same,% efficay tot.,[1]; Ex. 2 2.5 ppm in feed,2%
same,mortality %,[1]; Ex. 2 5 ppm in feed,33%
same,oocyst in % of inf. control tot.,[1]; Ex. 2 5 ppm in feed,73%
same,weight % of not inf. control,[1]; Ex. 2 5 ppm in feed,65%
same,dropping scores,[1]; Ex. 2 5 ppm in feed,6
same,lesion score,[1]; Ex. 2 5 ppm in feed,6
same,mortality n,[1]; Ex. 2 5 ppm in feed,1/3
same,% efficay tot.,[1]; Ex. 2 5 ppm in feed,37%
same,mortality %,[1]; Ex. 2 7.5 ppm in feed,33%
same,oocyst in % of inf. control tot.,[1]; Ex. 2 7.5 ppm in feed,41%
same,weight % of not inf. control,[1]; Ex. 2 7.5 ppm in feed,74%
same,dropping scores,[1]; Ex. 2 7.5 ppm in feed,6
same,lesion score,[1]; Ex. 2 7.5 ppm in feed,6
same,mortality n,[1]; Ex. 2 7.5 ppm in feed,1/3
same,% efficay tot.,[1]; Ex. 2 7.5 ppm in feed,36%
same,mortality %,[1]; Ex. 2 10 ppm in feed,0%
same,oocyst in % of inf. control tot.,[1]; Ex. 2 10 ppm in feed,83%
same,weight % of not inf. control,[1]; Ex. 2 10 ppm in feed,69%
same,dropping scores,[1]; Ex. 2 10 ppm in feed,6
same,lesion score,[1]; Ex. 2 10 ppm in feed,6
same,mortality n,[1]; Ex. 2 10 ppm in feed,0/3
same,% efficay tot.,[1]; Ex. 2 10 ppm in feed,17%
CCOCn1c(C(F)(F)F)nc2cc(OC(F)(F)F)c(C(F)(F)F)cc21 [Ex. 1],Efficacy against Eimeria maxima,Eimeria maxima; 1 ppm in feed,1
same,Efficacy against Eimeria maxima,Eimeria maxima; 2.5 ppm in feed,2
same,Efficacy against Eimeria maxima,Eimeria maxima; 5 ppm in feed,2
same,Efficacy against Eimeria maxima,Eimeria maxima; 7.5 ppm in feed,2
same,Efficacy against Eimeria maxima,Eimeria maxima; 10 ppm in feed,2
same,Efficacy against Eimeria tenella,Eimeria tenella; 1 ppm in feed,1
same,Efficacy against Eimeria tenella,Eimeria tenella; 2.5 ppm in feed,2
same,Efficacy against Eimeria tenella,Eimeria tenella; 5 ppm in feed,2
same,Efficacy against Eimeria tenella,Eimeria tenella; 7.5 ppm in feed,2
same,Efficacy against Eimeria tenella,Eimeria tenella; 10 ppm in feed,1
same,Efficacy against Eimeria acervulina,Eimeria acervulina; 1 ppm in feed,0
same,Efficacy against Eimeria acervulina,Eimeria acervulina; 2.5 ppm in feed,2
same,Efficacy against Eimeria acervulina,Eimeria acervulina; 5 ppm in feed,2
same,Efficacy against Eimeria acervulina,Eimeria acervulina; 7.5 ppm in feed,2
same,Efficacy against Eimeria acervulina,Eimeria acervulina; 10 ppm in feed,2
